# Assay results as given in US7981867B2, “Use of des-aspartate-angiotensin I” (priority 2005, dated 2011).
# Read-outs that look alike come from different tables or passages of the source. Marks after values point to notes of the source that are not given here.
# Tests used:
# [1] = system: Influenza A/Aichi/2/68 virus; format: in vivo, BALB/c mice
# diabetic KKAy mice [2] = test: Oral glucose tolerance test in diabetic KKAy mice, intraperitoneal treatment; format: in vivo; parameters: Serum glucose level: unit not given here; conditions: for Serum glucose level: oral glucose tolerance test
# Description: (§1) The diabteic KKAy mice were divided into four groups consisting of 6 animals per group. Animals in the control group were intraperitoneally administered 0.1 mL saline. Animals in the second, third, and fourth groups were similarly administered with 100, 200, 400 nmole/kg des-aspartate-angiotensin I, respectively. Treatment with saline and des-aspartate-angiotensin I was carried out daily for 4 weeks. Following this, animals were fasted overnight for 16 hours and oral glucose tolerance test was performed as follows: blood was withdrawn from the orbital sinus for blood glucose determination (time of withdrawal was designated as 0 time), animals were then orally administered glucose (2 g/kg), and blood was withdrawn at 30, 60 and 120 min for blood glucose determination.
# as §1, with “diabetic” for “diabteic”, “respectively in 0.1 ml of PBS.” for “respectively.”, “determination. The blood was allowed to clot and blood glucose was measured as serum glucose using a commercial glucose kit from Thermo Electron Corporation, Australia.” for “determination.”
# diabetic KKAy mice [3] = test: Oral glucose tolerance test in diabetic KKAy mice, oral treatment; format: in vivo; parameters: Serum glucose level: unit not given here; conditions: for Serum glucose level: oral glucose tolerance test
# Description: (§2) A dose-range finder experiment to determine the hypoglycaemic dose for orally administered des-aspartate-angiotensin I was also carried out. In this experiment, the animals in each of the three treatment groups of 7 diabetic KKAy mice were orally administered (by gavage) 200, 400, and 600 nmole/kg/day des-aspartate-angiotensin I in volume of 0.1 mL, respectively. Animals in the control group were similarly administered 0.1 mL water. The treatment period was 4 weeks. Oral glucose tolerance test was carried out as described in Example 5, except that blood was sampled at 0 and 30 min.
# as §2, with “In” for “A dose-range finder experiment to determine the hypoglycaemic dose for orally administered des-aspartate-angiotensin I was also carried out. In”, “mL water,” for “mL,”, “EXAMPLE 7,” for “Example 5,”
# diabetic GK rats = test: Oral glucose tolerance test in diabetic GK rats, oral treatment; format: in vivo; conditions: 400 or 600 nmole/kg oral daily; for hypoglycaemic action (30 min oral glucose tolerance test): 6 weeks of treatment
# Description: The experiment was similarly carried as for KKAy mice. Control animals were administered (by gavage) 0.2 mL of water and groups 1 and 2 animals were similarly administered 400 and 600 nmole/kg des-aspartate-angiotensin I in 0.2 mL water, respectively, for a period 8 weeks. Oral glucose tolerance test (determined at 30 min) was carried out after 4 and 6 weeks of treatment. […] Data obtained after 8 week of treatment are given in another figure, FIG. 4.
# Diabetic GK rats were divided into three groups, consisting of six animals in each group. Animals in groups 1 and 2 were administered, by gavage, one of the following: 400 or 600 nmole/kg of des-aspartate-angiotensin I in a volume of 0.2 mL water daily for up to 8 weeks. Control animals in group 3 were similarly administered 0.2 mL water. […] Animals were treated for a further 2 weeks and a full oral glucose tolerance test was performed thereafter.
# [4] = oral 1200 nmole/kg given as a single dose on Day 2 (n = 9), post infection day 11
substance,measurement,setting,value
"des-aspartate-angiotensin I (RVYIHPFHL; Angiotensin-1; UniProt P01019 26-34, looked up, fragment) [endogenous angiotensin peptide derived from angiotensin I by a specific aminopeptidase; purchased from Bachem]",Average Percentage Weight Change,"[1]; oral 300 nmole/kg/day for 16 days (n = 5), post infection day 0 (taken as 100%)",100%
same,Average Percentage Weight Change,"[1]; oral 300 nmole/kg/day for 16 days (n = 5), post infection day 1",102.1 ± 1.5%
same,Average Percentage Weight Change,"[1]; oral 300 nmole/kg/day for 16 days (n = 5), post infection day 2",96.2 ± 2.0%
same,Average Percentage Weight Change,"[1]; oral 300 nmole/kg/day for 16 days (n = 5), post infection day 3",90.8 ± 2.4%
same,Average Percentage Weight Change,"[1]; oral 300 nmole/kg/day for 16 days (n = 5), post infection day 4",85.8 ± 2.9%
same,Average Percentage Weight Change,"[1]; oral 300 nmole/kg/day for 16 days (n = 5), post infection day 5",83.2 ± 3.4%
same,number of animals that died on the day of recording,"[1]; oral 300 nmole/kg/day for 16 days (n = 5), post infection day 6",3
same,Average Percentage Weight Change,"[1]; oral 300 nmole/kg/day for 16 days (n = 5), post infection day 6, two surviving mice, no SEM",94.1%
same,Average Percentage Weight Change,"[1]; oral 300 nmole/kg/day for 16 days (n = 5), post infection day 7, two surviving mice, no SEM",95.7^# %
same,Average Percentage Weight Change,"[1]; oral 300 nmole/kg/day for 16 days (n = 5), post infection day 8, two surviving mice, no SEM",97.9^# %
same,Average Percentage Weight Change,"[1]; oral 300 nmole/kg/day for 16 days (n = 5), post infection day 9, two surviving mice, no SEM",98.7^# %
same,Average Percentage Weight Change,"[1]; oral 300 nmole/kg/day for 16 days (n = 5), post infection day 10, two surviving mice, no SEM",98.1^# %
same,Average Percentage Weight Change,"[1]; oral 300 nmole/kg/day for 16 days (n = 5), post infection day 11, two surviving mice, no SEM",97.4^# %
same,Average Percentage Weight Change,"[1]; oral 300 nmole/kg/day for 16 days (n = 5), post infection day 12, two surviving mice, no SEM",96.9^# %
same,Average Percentage Weight Change,"[1]; oral 300 nmole/kg/day for 16 days (n = 5), post infection day 13, two surviving mice, no SEM",96.8^# %
same,Average Percentage Weight Change,"[1]; oral 300 nmole/kg/day for 16 days (n = 5), post infection day 14, two surviving mice, no SEM",98.2^# %
same,Average Percentage Weight Change,"[1]; oral 300 nmole/kg/day for 16 days (n = 5), post infection day 15, two surviving mice, no SEM",99.6^# %
same,Average Percentage Weight Change,"[1]; oral 300 nmole/kg/day for 16 days (n = 5), post infection day 16, two surviving mice, no SEM",102.4^# %
same,"antiviral activity (attenuation of weight loss, survival)",[1]; oral 600 nmole/kg administered daily for 8 days,Effective antiviral activity
same,Average Percentage Weight Change,"[1]; oral 600 nmole/kg/day for 16 days (n = 9), post infection day 0 (taken as 100%)",100%
same,Average Percentage Weight Change,"[1]; oral 600 nmole/kg/day for 16 days (n = 9), post infection day 1",98.7 ± 1.3%
same,Average Percentage Weight Change,"[1]; oral 600 nmole/kg/day for 16 days (n = 9), post infection day 2",95.8 ± 1.4%
same,Average Percentage Weight Change,"[1]; oral 600 nmole/kg/day for 16 days (n = 9), post infection day 3",92.0 ± 1.7%
same,Average Percentage Weight Change,"[1]; oral 600 nmole/kg/day for 16 days (n = 9), post infection day 4",92.4 ± 1.8 %
same,Average Percentage Weight Change,"[1]; oral 600 nmole/kg/day for 16 days (n = 9), post infection day 5",94.8 ± 1.8 %
same,Average Percentage Weight Change,"[1]; oral 600 nmole/kg/day for 16 days (n = 9), post infection day 6",95.5 ± 2.1 %
same,Average Percentage Weight Change,"[1]; oral 600 nmole/kg/day for 16 days (n = 9), post infection day 7",97.8 ± 2.6 %
same,Average Percentage Weight Change,"[1]; oral 600 nmole/kg/day for 16 days (n = 9), post infection day 8",96.7 ± 2.9%
same,Average Percentage Weight Change,"[1]; oral 600 nmole/kg/day for 16 days (n = 9), post infection day 9",96.3 ± 3.5%
same,Average Percentage Weight Change,"[1]; oral 600 nmole/kg/day for 16 days (n = 9), post infection day 10",95.6 ± 4.0%
same,Average Percentage Weight Change,"[1]; oral 600 nmole/kg/day for 16 days (n = 9), post infection day 11",95.4 ± 4.5%
same,Average Percentage Weight Change,"[1]; oral 600 nmole/kg/day for 16 days (n = 9), post infection day 12",95.1 ± 5.0%
same,Average Percentage Weight Change,"[1]; oral 600 nmole/kg/day for 16 days (n = 9), post infection day 13",95.5 ± 5.2%
same,Average Percentage Weight Change,"[1]; oral 600 nmole/kg/day for 16 days (n = 9), post infection day 14",99.1 ± 3.4%
same,Average Percentage Weight Change,"[1]; oral 600 nmole/kg/day for 16 days (n = 9), post infection day 15",100.3 ± 4.2%
same,Average Percentage Weight Change,"[1]; oral 600 nmole/kg/day for 16 days (n = 9), post infection day 16",97.0 ± 4.8%
same,Average Percentage Weight Change,"[1]; oral 1200 nmole/kg given as a single dose on Day 2 (n = 9), post infection day 0 (taken as 100%)",100%
same,Average Percentage Weight Change,"[1]; oral 1200 nmole/kg given as a single dose on Day 2 (n = 9), post infection day 1",103.5 ± 0.5%
same,Average Percentage Weight Change,"[1]; oral 1200 nmole/kg given as a single dose on Day 2 (n = 9), post infection day 2",96.8 ± 0.6%
same,Average Percentage Weight Change,"[1]; oral 1200 nmole/kg given as a single dose on Day 2 (n = 9), post infection day 3",95.1 ± 0.8 %
same,Average Percentage Weight Change,"[1]; oral 1200 nmole/kg given as a single dose on Day 2 (n = 9), post infection day 4",96.7 ± 1.2 %
same,Average Percentage Weight Change,"[1]; oral 1200 nmole/kg given as a single dose on Day 2 (n = 9), post infection day 5",96.3 ± 2.1 %
same,Average Percentage Weight Change,"[1]; oral 1200 nmole/kg given as a single dose on Day 2 (n = 9), post infection day 6",95.7 ± 3.1 %
same,Average Percentage Weight Change,"[1]; oral 1200 nmole/kg given as a single dose on Day 2 (n = 9), post infection day 7",97.8 ± 4.0 %
same,Average Percentage Weight Change,"[1]; oral 1200 nmole/kg given as a single dose on Day 2 (n = 9), post infection day 8",98.3 ± 4.3%
same,Average Percentage Weight Change,"[1]; oral 1200 nmole/kg given as a single dose on Day 2 (n = 9), post infection day 9",101.1 ± 4.7%
same,Average Percentage Weight Change,"[1]; oral 1200 nmole/kg given as a single dose on Day 2 (n = 9), post infection day 10",101.1 ± 4.8%
same,Average Percentage Weight Change,[1]; [4],105.9 ± 1.3%
same,number of animals that died on the day of recording,[1]; [4],1
same,Average Percentage Weight Change,"[1]; oral 1200 nmole/kg given as a single dose on Day 2 (n = 9), post infection day 12",106.1 ± 1.3%
same,Average Percentage Weight Change,"[1]; oral 1200 nmole/kg given as a single dose on Day 2 (n = 9), post infection day 13",108.1 ± 1.2%
same,Average Percentage Weight Change,"[1]; oral 1200 nmole/kg given as a single dose on Day 2 (n = 9), post infection day 14",107.2 ± 1.3%
same,Average Percentage Weight Change,"[1]; oral 1200 nmole/kg given as a single dose on Day 2 (n = 9), post infection day 15",109.4 ± 1.2%
same,Average Percentage Weight Change,"[1]; oral 1200 nmole/kg given as a single dose on Day 2 (n = 9), post infection day 16",108.4 ± 1.5%
same,"antiviral activity (attenuation of weight loss, survival)",[1]; oral single dose of 1200 nmole/kg given on Day 2,Effective antiviral activity
same,Serum glucose level,"diabetic KKAy mice [2]; 100 nmole/kg i.p. daily for 4 weeks, 0 min",7.9 ± 0.9
same,Serum glucose level,"diabetic KKAy mice [2]; 100 nmole/kg i.p. daily for 4 weeks, 30 min",21.2 ± 1.6
same,Serum glucose level,"diabetic KKAy mice [2]; 100 nmole/kg i.p. daily for 4 weeks, 60 min",13.4 ± 1.3
same,Serum glucose level,"diabetic KKAy mice [2]; 100 nmole/kg i.p. daily for 4 weeks, 120 min",9.9 ± 0.5
same,Serum glucose level,"diabetic KKAy mice [2]; 200 nmole/kg i.p. daily for 4 weeks, 0 min",6.9 ± 0.9
same,Serum glucose level,"diabetic KKAy mice [2]; 200 nmole/kg i.p. daily for 4 weeks, 30 min",16.0 ± 1.4
same,Serum glucose level,"diabetic KKAy mice [2]; 200 nmole/kg i.p. daily for 4 weeks, 60 min",14.5 ± 0.9
same,Serum glucose level,"diabetic KKAy mice [2]; 200 nmole/kg i.p. daily for 4 weeks, 120 min",8.7 ± 1.2
same,Serum glucose level,"diabetic KKAy mice [2]; 400 nmole/kg i.p. daily for 4 weeks, 0 min",6.5 ± 0.6
same,Serum glucose level,"diabetic KKAy mice [2]; 400 nmole/kg i.p. daily for 4 weeks, 30 min",15.4 ± 1.6
same,Serum glucose level,"diabetic KKAy mice [2]; 400 nmole/kg i.p. daily for 4 weeks, 60 min",13.0 ± 1.1
same,Serum glucose level,"diabetic KKAy mice [2]; 400 nmole/kg i.p. daily for 4 weeks, 120 min",8.8 ± 0.6
same,blood glucose level at 30 and 60 min of the oral glucose tolerance test,"diabetic KKAy mice [2]; doses of 200 and 400 nmole/kg/day i.p. for 4 weeks, vs control",significantly lowered
same,Serum glucose level,"diabetic KKAy mice [3]; 200 nmole/kg/day oral (gavage) for 4 weeks, 0 min",8.9 ± 1.0
same,Serum glucose level,"diabetic KKAy mice [3]; 200 nmole/kg/day oral (gavage) for 4 weeks, 30 min",37.7 ± 2.6
same,Serum glucose level,"diabetic KKAy mice [3]; 400 nmole/kg/day oral (gavage) for 4 weeks, 0 min",9.1 ± 1.6
same,Serum glucose level,"diabetic KKAy mice [3]; 400 nmole/kg/day oral (gavage) for 4 weeks, 30 min",26.0 ± 3.6
same,Serum glucose level,"diabetic KKAy mice [3]; 600 nmole/kg/day oral (gavage) for 4 weeks, 0 min",8.9 ± 0.7
same,Serum glucose level,"diabetic KKAy mice [3]; 600 nmole/kg/day oral (gavage) for 4 weeks, 30 min",17.5 ± 1.9
same,hypoglycaemic action,"diabetic KKAy mice [3]; oral dose of 600 nmole/kg/day for 4 weeks, KKAy mice",significant hypoglycaemic action
same,hypoglycaemic action (30 min oral glucose tolerance test),diabetic GK rats,significant hypoglycaemic action was detected
same,hypoglycaemic action (30 min oral glucose tolerance test),diabetic GK rats; listed as DAA-1,exerts hypoglycaemic action
same,hypoglycaemic action (full oral glucose tolerance test),diabetic GK rats; 8 weeks of treatment,significantly expressed
